#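 Protocol summary: plate cells (96-well), add compound at 5 concentrations, incubate 48 h, interpolate endpoints linearly. At the GI50, growth is halved.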 Activity calls are given as the source filed them. Cut-off read from the data, not from the text of the source: active = GI50 up to about 1.1 µM and inactive = higher.
# Legend:
# Assay in all cases: growth of human tumour cells (NCI), 48 h
# COLO 205 = system: COLO 205
# NCI-H522 = system: NCI-H522
# MCF7 = system: MCF7
# UACC-62 = system: UACC-62
# MOLT-4 = system: MOLT-4
# T47D = system: T47D
# RPMI-8226 = system: RPMI-8226
# SNB-19 = system: SNB-19
# SR = system: SR
# PC-3 = system: PC-3
# KM12 = system: KM12
# SK-OV-3 = system: SK-OV-3
# SNB-75 = system: SNB-75
# MDA-MB-231 = system: MDA-MB-231
# NCI/ADR-RES = system: NCI/ADR-RES
# HL-60 = system: HL-60
# HCT-116 = system: HCT-116
# MDA-MB-435 = system: MDA-MB-435
# UO-31 = system: UO-31
# BT-549 = system: BT-549
# HT-29 = system: HT-29
# DU-145 = system: DU-145
# SK-MEL-5 = system: SK-MEL-5
# CCRF-CEM = system: CCRF-CEM
# MDA-N = system: MDA-N
# NCI-H226 = system: NCI-H226
# SF-539 = system: SF-539
# NCI-H23 = system: NCI-H23
# IGROV-1 = system: IGROV-1
# 786-0 = system: 786-0
# CAKI-1 = system: CAKI-1
# HCC 2998 = system: HCC 2998
# OVCAR-4 = system: OVCAR-4
# EKVX = system: EKVX
# UACC-257 = system: UACC-257
# OVCAR-8 = system: OVCAR-8
# SW-620 = system: SW-620
# U-251 = system: U-251
# Hs-578T = system: Hs-578T
# HOP-92 = system: HOP-92
# SK-MEL-2 = system: SK-MEL-2
# OVCAR-3 = system: OVCAR-3
# SN12C = system: SN12C
# LOX IMVI = system: LOX IMVI
# OVCAR-5 = system: OVCAR-5
# NCI-H460 = system: NCI-H460
# HCT-15 = system: HCT-15
# TK-10 = system: TK-10
# ACHN = system: ACHN
# M14 = system: M14
# SF-268 = system: SF-268
# K562 = system: K562
# A498 = system: A498
# Malme-3M = system: Malme-3M
# HOP-62 = system: HOP-62
# SF-295 = system: SF-295
# A549 = system: A549
# SK-MEL-28 = system: SK-MEL-28
smiles,measurement,setting,value
CN(/N=C/c1ccc(Cl)cc1)C1=NCCCCN1,GI50,COLO 205,35.1 µM (inactive)
same,GI50,NCI-H522,39.4 µM (inactive)
same,GI50,MCF7,> 100 µM (inactive)
same,GI50,UACC-62,67.1 µM (inactive)
same,GI50,MOLT-4,26.7 µM (inactive)
same,GI50,T47D,> 100 µM (inactive)
same,GI50,RPMI-8226,> 100 µM (inactive)
same,GI50,SNB-19,> 100 µM (inactive)
same,GI50,SR,> 100 µM (inactive)
same,GI50,PC-3,32.9 µM (inactive)
same,GI50,KM12,50.5 µM (inactive)
same,GI50,SK-OV-3,> 100 µM (inactive)
same,GI50,SNB-75,68.7 µM (inactive)
same,GI50,MDA-MB-231,35 µM (inactive)
same,GI50,NCI/ADR-RES,> 100 µM (inactive)
same,GI50,HL-60,30.3 µM (inactive)
same,GI50,HCT-116,48.1 µM (inactive)
same,GI50,MDA-MB-435,72.1 µM (inactive)
same,GI50,UO-31,> 100 µM (inactive)
same,GI50,BT-549,> 100 µM (inactive)
same,GI50,HT-29,66.2 µM (inactive)
same,GI50,DU-145,> 100 µM (inactive)
same,GI50,SK-MEL-5,53.2 µM (inactive)
same,GI50,CCRF-CEM,38.1 µM (inactive)
same,GI50,MDA-N,> 100 µM (inactive)
same,GI50,NCI-H226,> 100 µM (inactive)
same,GI50,SF-539,> 100 µM (inactive)
same,GI50,NCI-H23,> 100 µM (inactive)
same,GI50,IGROV-1,> 100 µM (inactive)
same,GI50,786-0,99.8 µM (inactive)
same,GI50,CAKI-1,> 100 µM (inactive)
same,GI50,HCC 2998,44.6 µM (inactive)
same,GI50,OVCAR-4,> 100 µM (inactive)
same,GI50,EKVX,> 100 µM (inactive)
same,GI50,UACC-257,> 100 µM (inactive)
same,GI50,OVCAR-8,> 100 µM (inactive)
same,GI50,SW-620,> 100 µM (inactive)
same,GI50,U-251,> 100 µM (inactive)
same,GI50,Hs-578T,> 100 µM (inactive)
same,GI50,HOP-92,47.3 µM (inactive)
same,GI50,SK-MEL-2,> 10 µM (inactive)
same,GI50,OVCAR-3,> 100 µM (inactive)
same,GI50,SN12C,81.5 µM (inactive)
same,GI50,LOX IMVI,22.1 µM (inactive)
same,GI50,OVCAR-5,> 100 µM (inactive)
same,GI50,NCI-H460,> 100 µM (inactive)
same,GI50,HCT-15,> 100 µM
same,GI50,TK-10,> 100 µM (inactive)
same,GI50,ACHN,> 100 µM (inactive)
same,GI50,M14,24.6 µM (inactive)
same,GI50,SF-268,> 100 µM (inactive)
same,GI50,K562,18.9 µM (inactive)
same,GI50,A498,56.9 µM (inactive)
same,GI50,Malme-3M,62.8 µM (inactive)
same,GI50,HOP-62,> 100 µM (inactive)
same,GI50,SF-295,> 100 µM (inactive)
same,GI50,A549,93.8 µM (inactive)
C=C1CC(Cn2ccc(=O)[nH]c2=O)(c2ccc(-c3ccccc3)cc2)OC1=O (stereo not given),GI50,COLO 205,0.441 µM (active)
same,GI50,NCI-H522,0.836 µM (active)
same,GI50,MCF7,0.916 µM (active)
same,GI50,UACC-62,0.764 µM (active)
same,GI50,MOLT-4,1.5 µM (inactive)
same,GI50,SK-MEL-28,2.45 µM (inactive)
same,GI50,T47D,1.57 µM (inactive)
same,GI50,RPMI-8226,0.234 µM (active)
same,GI50,SNB-19,16.9 µM (inactive)
same,GI50,SR,0.995 µM (active)
same,GI50,PC-3,3.2 µM (inactive)
same,GI50,KM12,3.61 µM (inactive)
same,GI50,SK-OV-3,8.09 µM (inactive)
same,GI50,SNB-75,13.6 µM (inactive)
same,GI50,MDA-MB-231,1.98 µM (inactive)
same,GI50,NCI/ADR-RES,0.805 µM (active)
same,GI50,HL-60,0.154 µM (active)
same,GI50,HCT-116,0.377 µM (active)
same,GI50,MDA-MB-435,1.69 µM (inactive)
same,GI50,UO-31,6.64 µM (inactive)
same,GI50,BT-549,1.86 µM (inactive)
same,GI50,HT-29,0.938 µM (active)
same,GI50,DU-145,1.05 µM (active)
same,GI50,SK-MEL-5,1.16 µM (inactive)
same,GI50,CCRF-CEM,0.305 µM (active)
same,GI50,MDA-N,1.03 µM (active)
same,GI50,NCI-H226,4.6 µM (inactive)
same,GI50,SF-539,2.4 µM (inactive)
same,GI50,NCI-H23,1.98 µM (inactive)
same,GI50,IGROV-1,1.04 µM (active)
same,GI50,786-0,0.619 µM (active)
same,GI50,CAKI-1,1.16 µM (inactive)
same,GI50,HCC 2998,2.07 µM (inactive)
same,GI50,OVCAR-4,2.1 µM (inactive)
same,GI50,EKVX,12.2 µM (inactive)
same,GI50,UACC-257,1.65 µM (inactive)
same,GI50,OVCAR-8,2.62 µM (inactive)
same,GI50,SW-620,0.257 µM (active)
same,GI50,U-251,12.1 µM (inactive)
same,GI50,Hs-578T,3.7 µM (inactive)
same,GI50,HOP-92,1.2 µM (inactive)
same,GI50,SK-MEL-2,2.09 µM (inactive)
same,GI50,OVCAR-3,1.98 µM (inactive)
same,GI50,SN12C,4.6 µM (inactive)
same,GI50,LOX IMVI,0.493 µM (active)
same,GI50,OVCAR-5,10 µM (inactive)
same,GI50,NCI-H460,11.2 µM (inactive)
same,GI50,HCT-15,1.65 µM
same,GI50,TK-10,1.03 µM (active)
same,GI50,ACHN,1.78 µM (inactive)
same,GI50,M14,1.67 µM (inactive)
same,GI50,SF-268,16.1 µM (inactive)
same,GI50,K562,0.208 µM (active)
same,GI50,A498,2.86 µM (inactive)
same,GI50,Malme-3M,1.46 µM (inactive)
same,GI50,HOP-62,15.2 µM (inactive)
same,GI50,SF-295,12.5 µM (inactive)
same,GI50,A549,11.1 µM (inactive)

# — ChEMBL document CHEMBL1201862, “PubChem BioAssay data set” (2004)
